Measured values: ChEMBL document CHEMBL1201862, “PubChem BioAssay data set” (2004)
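1) Cells in 96-well plates. 2) Compound, 48 h, 5 concentrations. 3) Linear interpolation between surrounding doses. 4) Unreached endpoint = highest concentration. Here, GI50 denotes the concentration required for 50% inhibition of growth.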 The source made the active and inactive calls. No stated cut-off is given here; in the data, active = GI50 up to about 1.1 µM and inactive = higher.

Key:
Test in all cases: growth of human tumour cells (NCI), 48 h
A549 = test system: A549
ACHN = test system: ACHN
CAKI-1 = test system: CAKI-1
CCRF-CEM = test system: CCRF-CEM
HCT-15 = test system: HCT-15
K562 = test system: K562
KM12 = test system: KM12
SF-539 = test system: SF-539
SN12C = test system: SN12C
SNB-19 = test system: SNB-19
SNB-75 = test system: SNB-75
SR = test system: SR
TK-10 = test system: TK-10
UO-31 = test system: UO-31
XF498 = test system: XF498
LOX IMVI = test system: LOX IMVI
OVCAR-5 = test system: OVCAR-5

Compound: COC(=O)C1=CNC(C(=O)OC)=NN1
- GI50 (A549): > 100 µM (inactive)
- GI50 (ACHN): > 100 µM (inactive)
- GI50 (CAKI-1): > 100 µM (inactive)
- GI50 (CCRF-CEM): > 100 µM (inactive)
- GI50 (HCT-15): > 100 µM
- GI50 (K562): > 100 µM (inactive)
- GI50 (KM12): > 100 µM (inactive)
- GI50 (SF-539): > 100 µM (inactive)
- GI50 (SN12C): > 100 µM (inactive)
- GI50 (SNB-19): > 100 µM (inactive)
- GI50 (SNB-75): > 100 µM (inactive)
- GI50 (SR): > 100 µM (inactive)
- GI50 (TK-10): > 100 µM (inactive)
- GI50 (UO-31): > 100 µM (inactive)
- GI50 (XF498): > 100 µM (inactive)

Compound: CCCc1c[nH]c(-c2ccc(-c3cc(CCC)c(C=O)[nH]3)s2)c1
- GI50 (A549): 5.83 µM (inactive)
- GI50 (ACHN): 19.2 µM (inactive)
- GI50 (CCRF-CEM): 21.8 µM (inactive)
- GI50 (HCT-15): 14.6 µM
- GI50 (K562): 12.4 µM (inactive)
- GI50 (KM12): 14.7 µM (inactive)
- GI50 (LOX IMVI): 14 µM (inactive)
- GI50 (SF-539): 18.7 µM (inactive)
- GI50 (SN12C): 15.6 µM (inactive)
- GI50 (SNB-19): 22 µM (inactive)
- GI50 (SNB-75): 19.8 µM (inactive)
- GI50 (TK-10): 15.3 µM (inactive)
- GI50 (UO-31): 0.0165 µM (active)
- GI50 (XF498): 18.7 µM (inactive)

Compound: CC1=C(C(=O)Nc2cc(=O)n(C)c(=O)n2C)C(c2ccc([N+](=O)[O-])cc2)C(C(=O)Nc2cc(=O)n(C)c(=O)n2C)=C(C)N1
- GI50 (A549): > 100 µM (inactive)
- GI50 (ACHN): 68.2 µM (inactive)
- GI50 (CCRF-CEM): > 100 µM (inactive)
- GI50 (HCT-15): > 100 µM
- GI50 (K562): 75.5 µM (inactive)
- GI50 (KM12): > 100 µM (inactive)
- GI50 (LOX IMVI): 54.6 µM (inactive)
- GI50 (OVCAR-5): > 100 µM (inactive)
- GI50 (SF-539): > 100 µM (inactive)
- GI50 (SN12C): > 100 µM (inactive)
- GI50 (SNB-19): > 100 µM (inactive)
- GI50 (SNB-75): 42 µM (inactive)
- GI50 (TK-10): > 100 µM (inactive)
- GI50 (UO-31): 21.8 µM (inactive)
- GI50 (XF498): 8.97 µM (inactive)

Compound: COc1ccc(N2C(=O)c3c(c4[nH]c5ccc(OC)cc5c4c4ccc(C(C)(C)C)cc34)C2=O)cc1
- GI50 (A549): > 100 µM (inactive)
- GI50 (ACHN): > 100 µM (inactive)
- GI50 (CCRF-CEM): > 100 µM (inactive)
- GI50 (HCT-15): > 100 µM
- GI50 (K562): > 100 µM (inactive)
- GI50 (KM12): > 100 µM (inactive)
- GI50 (OVCAR-5): > 100 µM (inactive)
- GI50 (SF-539): > 100 µM (inactive)
- GI50 (SN12C): > 100 µM (inactive)
- GI50 (SNB-19): > 100 µM (inactive)
- GI50 (SNB-75): > 100 µM (inactive)
- GI50 (TK-10): > 100 µM (inactive)
- GI50 (UO-31): > 100 µM (inactive)
- GI50 (XF498): > 100 µM (inactive)

Compound: COC(=O)NN=C1C(C)(C)C(=NNC(=O)OC)C1(C)C
- GI50 (A549): > 100 µM (inactive)
- GI50 (ACHN): > 100 µM (inactive)
- GI50 (CAKI-1): > 85.1 µM (inactive)
- GI50 (CCRF-CEM): > 44.9 µM (inactive)
- GI50 (HCT-15): > 90.6 µM
- GI50 (K562): > 100 µM (inactive)
- GI50 (KM12): > 100 µM (inactive)
- GI50 (LOX IMVI): > 35.8 µM (inactive)
- GI50 (OVCAR-5): > 100 µM (inactive)
- GI50 (SF-539): > 100 µM (inactive)
- GI50 (SN12C): > 68.2 µM (inactive)
- GI50 (SNB-19): > 100 µM (inactive)
- GI50 (SNB-75): > 100 µM (inactive)
- GI50 (TK-10): > 100 µM (inactive)
- GI50 (UO-31): > 100 µM (inactive)
- GI50 (XF498): > 96.6 µM (inactive)
